Tests used:
Experiment in all cases: Bliss excess, mean over the matrix (fraction); higher = more synergy
[1] = tested on: BxPC-3 (Pancreatic Carcinoma)
Procedure, shortened: (§1)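 Cell lines grown in DMEM/F12 or RPMI with 10% FBS were plated in 1536-well plates and held 24 hours at 37°C, 5% CO2 before 72 hours of exposure to two-drug dose matrices, with DMSO typically at 0.2%. CellTiter-Glo 2.0 luminescence gave viability, which was converted to inhibition. Vehicle wells were set to 0 and blank wells to 1. Combination Emax is the second-highest inhibition in the matrix, and Bliss excess is the observed combination effect minus the expected EA + EB − EA·EB, where EA and EB are the single-agent effects.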

[2] = tested on: COR-L88 (Small Cell Lung Carcinoma)
Procedure, shortened: as §1

[3] = tested on: DBTRG-05MG (Glioblastoma)
Procedure, shortened: as §1

GAK (Melanoma) = tested on: GAK (Melanoma)
Procedure, shortened: as §1

[4] = tested on: HT-1080 (Other Solid Carcinomas)
Procedure, shortened: as §1

IST-MEL1 (Melanoma) = tested on: IST-MEL1 (Melanoma)
Procedure, shortened: as §1

[5] = tested on: LCLC-103H (Non-Small Cell Lung Carcinoma)
Procedure, shortened: as §1

[6] = tested on: MONO-MAC-6 (Acute Myeloid Leukemia)
Procedure, shortened: as §1

[7] = tested on: NAMALWA (Burkitt's Lymphoma)
Procedure, shortened: as §1

NB1 (Neuroblastoma) = tested on: NB1 (Neuroblastoma)
Procedure, shortened: as §1

NCI-H226 (Mesothelioma) = tested on: NCI-H226 (Mesothelioma)
Procedure, shortened: as §1

NCI-H2373 (Mesothelioma) = tested on: NCI-H2373 (Mesothelioma)
Procedure, shortened: as §1

[8] = tested on: NCI-H596 (Other Solid Carcinomas)
Procedure, shortened: as §1

[9] = tested on: P32-ISH (Burkitt's Lymphoma)
Procedure, shortened: as §1

[10] = tested on: PL4 (Pancreatic Carcinoma)
Procedure, shortened: as §1

[11] = tested on: SCC-4 (Oral Cavity Carcinoma)
Procedure, shortened: as §1

[12] = tested on: SNU-407 (Colorectal Carcinoma)
Procedure, shortened: as §1

T47D (Breast Carcinoma) = tested on: T47D (Breast Carcinoma)
Procedure, shortened: as §1

WM35 (Melanoma) = tested on: WM35 (Melanoma)
Procedure, shortened: as §1

[13] = tested on: ZR-75-30 (Breast Carcinoma)
Procedure, shortened: as §1

| SMILES | Bliss excess [1] | Bliss excess [2] | Bliss excess [3] | Bliss excess (GAK (Melanoma)) | Bliss excess [4] | Bliss excess (IST-MEL1 (Melanoma)) | Bliss excess [5] | Bliss excess [6] | Bliss excess [7] | Bliss excess (NB1 (Neuroblastoma)) | Bliss excess (NCI-H226 (Mesothelioma)) | Bliss excess (NCI-H2373 (Mesothelioma)) | Bliss excess [8] | Bliss excess [9] | Bliss excess [10] | Bliss excess [11] | Bliss excess [12] | Bliss excess (T47D (Breast Carcinoma)) | Bliss excess (WM35 (Melanoma)) | Bliss excess [13] |
| --- | --- | --- | --- | --- | --- | --- | --- | --- | --- | --- | --- | --- | --- | --- | --- | --- | --- | --- | --- | --- |
| COc1cc2c(cc1OCCCCCOc1cc3c(cc1OC)C(=O)N1C=C(C)C[C@H]1C=N3)N=C[C@@H]1CC(C)=CN1C2=O [SG3199] + O=C(c1cc(Cc2n[nH]c(=O)c3ccccc23)ccc1F)N1CCN(C(=O)C2CC2)CC1 [Olaparib] (first compound max 0.001 µM, 7x7, partner max 10 µM) | -0.0403 | -0.0133 | -0.0357 | -0.0238 | -0.02 | -0.0196 | -0.0506 | -0.015 | 0.0018 | -0.0418 | -0.0581 | 0.0054 | -0.0681 | -0.0164 | 0.0304 | -0.0545 | -0.0378 | -0.0449 | -0.0129 | -0.001 |
| CCN(CCO)CCCOc1ccc2c(Nc3cc(CC(=O)Nc4cccc(F)c4)[nH]n3)ncnc2c1 [AZD2811] + C[C@@H]1COCCN1C2=NC(=NC(=C2)C3(CC3)[S@](=N)(=O)C)C4=C5C=CNC5=NC=C4 [AZD6738] (first compound max 1 µM, 7x7, partner max 10 µM) | -0.0352 | -0.0598 | -0.0657 | -0.056 | -0.0375 | -0.0456 | -0.119 | -0.0262 | 0.0394 | -0.0802 | -0.069 | -0.0139 | -0.0056 | -0.0153 | -0.0171 | -0.0707 | -0.094 | -0.0493 | -0.0306 | -0.0533 |
| Cc1cc2ncnn2cc1Nc1ncc2c(n1)n(C1CCOCC1)c(=O)n2C [AZD7648] + CCN(CCO)CCCOc1ccc2c(Nc3cc(CC(=O)Nc4cccc(F)c4)[nH]n3)ncnc2c1 [AZD2811] (first compound max 10 µM, 7x7, partner max 1 µM) | -0.0052 | 0.0077 | -0.0028 | -0.035 | 0.0364 | 0.03 | -0.026 | 0.0123 | 0.114 | -0.0026 | -0.0733 | -0.034 | -0.0576 | -0.0367 | -0.0041 | -0.0526 | 0.023 | 0.055 | -0.0036 | -0.0449 |
| Cc1cc2ncnn2cc1Nc1ncc2c(n1)n(C1CCOCC1)c(=O)n2C [AZD7648] + O=C(c1cc(Cc2n[nH]c(=O)c3ccccc23)ccc1F)N1CCN(C(=O)C2CC2)CC1 [Olaparib] (first compound max 10 µM, 7x7, partner max 10 µM) | -0.0712 | -0.0432 | -0.0477 | -0.0379 | -0.0165 | -0.0517 | -0.0374 | -0.0146 | -0.0119 | -0.0431 | -0.0801 | 0.0234 | -0.0384 | -0.0413 | -0.0364 | -0.0422 | -0.0796 | -0.042 | -0.0239 | -0.0469 |
| CN(C)CCCOc1ccc(-c2ccc3ncc4c(c3c2)n(C2CCOCC2)c(=O)n4C)cn1 [AZD0156] + CCN(CCO)CCCOc1ccc2c(Nc3cc(CC(=O)Nc4cccc(F)c4)[nH]n3)ncnc2c1 [AZD2811] (first compound max 1 µM, 7x7, partner max 1 µM) | -0.0212 | -0.0279 | -0.0453 | -0.0025 | -0.0159 | -0.0131 | -0.0395 | 0.053 | 0.0323 | -0.0137 | -0.0676 | -0.0048 | -0.005 | -0.0042 | 0.0286 | -0.0668 | -0.0247 | -0.0062 | -0.0426 | -0.0415 |
| Cc1c2c(nn1C)CSCc1cc(n(C)n1)CSc1cc(c3ccccc3c1)OCCCc1c(C(=O)O)n(C)c3c-2c(Cl)ccc13 [AZD5991] + CN(C)CCCOc1ccc(-c2ccc3ncc4c(c3c2)n(C2CCOCC2)c(=O)n4C)cn1 [AZD0156] (first compound max 1 µM, 7x7, partner max 1 µM) | 0.0229 | -0.0129 | 0.0252 | 0.0152 | -0.0148 | -0.0282 | 0.0401 | -0.0433 | -0.0079 | -0.0522 | 0.0125 | -0.0069 | -0.0088 | 0.0083 | 0.056 | -0.0232 | -0.463 | 0.0093 | 0.0155 | -0.0128 |
| CN(CCO)CC[C@H](CSc1ccccc1)Nc1ccc(S(=O)(=O)NC(=O)c2ccc(N3CCC([C@@H](O)c4ccccc4-c4ccc(Cl)cc4)CC3)cc2)cc1S(=O)(=O)C(F)(F)F [AZD4320] + Cc1cc2ncnn2cc1Nc1ncc2c(n1)n(C1CCOCC1)c(=O)n2C [AZD7648] (first compound max 1 µM, 7x7, partner max 10 µM) | -0.024 | 0.0052 | -0.0015 | 0.0066 | -0.0757 | -0.0465 | -0.0303 | 0.0106 | 0.0013 | -0.0148 | -0.0674 | -0.0389 | -0.0422 | 0.0076 | -0.0631 | -0.0568 | 0.0313 | -0.0255 | -0.0122 | -0.0359 |
| COc1nnc2ccc(N3CCC(c4ccc(OCCN5CCN(C)C(=O)[C@H]5C)cc4)CC3)nn12 [AZD5153] + C=CCn1c(=O)c2cnc(Nc3ccc(N4CCN(C)CC4)cc3)nc2n1-c1cccc(C(C)(C)O)n1 [AZD1775] (first compound max 1 µM, partner max 1 µM) | -0.028 | -0.0249 | -0.0053 | -0.158 | -0.0362 | -0.0398 | -0.0128 | -0.0323 | -0.0633 | -0.0461 | -0.0349 | -0.0589 | -0.131 | -0.0649 | 0.0251 | -0.0421 | -0.0278 | -0.0262 | -0.0242 | -0.042 |
| NC1(C(=O)N[C@@H](CCO)c2ccc(Cl)cc2)CCN(c2ncnc3[nH]ccc23)CC1 [Capivasertib] + COc1nnc2ccc(N3CCC(c4ccc(OCCN5CCN(C)C(=O)[C@H]5C)cc4)CC3)nn12 [AZD5153] (first compound max 10 µM, 7x7, partner max 1 µM) | -0.0336 | 0.0516 | -0.0239 | -0.0323 | -0.0558 | -0.0143 | -0.0028 | -0.003 | -0.0058 | 0.0085 | -0.0165 | 0.0349 | -0.0136 | 0.119 | -0.0138 | 0.0043 | -0.0269 | 0.0139 | -0.0195 | -0.034 |
| COc1cccc(OCCCN)c1-c1cc(Nc2cnc(C#N)cn2)n[nH]1 [Prexasertib] + Cc1cc2ncnn2cc1Nc1ncc2c(n1)n(C1CCOCC1)c(=O)n2C [AZD7648] (first compound max 1 µM, 7x7, partner max 10 µM) | -0.0908 | -0.0628 | -0.0105 | -0.0028 | 0.0234 | -0.0046 | -0.0791 | 0.0406 | 0.0087 | 0.0251 | -0.0568 | -0.0099 | -0.026 | -0.0068 | 0.0048 | -0.0267 | 0.0252 | -0.0055 | 0.0429 | -0.0463 |
| COc1nnc2ccc(N3CCC(c4ccc(OCCN5CCN(C)C(=O)[C@H]5C)cc4)CC3)nn12 [AZD5153] + CC1(C)CCC(CN2CCN(c3ccc(C(=O)NS(=O)(=O)c4ccc(NCC5CCOCC5)c([N+](=O)[O-])c4)c(Oc4cnc5[nH]ccc5c4)c3)CC2)=C(c2ccc(Cl)cc2)C1 [Venetoclax] (first compound max 1 µM, 7x7, partner max 1 µM) | -0.0745 | -0.0179 | -0.0832 | -0.0172 | -0.0216 | -0.0812 | -0.0404 | 0.0179 | -0.0558 | -0.0863 | -0.0192 | -0.0769 | -0.0701 | -0.0067 | 0.0064 | -0.0765 | -0.0217 | -0.0713 | -0.0097 | -0.0852 |
| CC1(C)CCC(CN2CCN(c3ccc(C(=O)NS(=O)(=O)c4ccc(NCC5CCOCC5)c([N+](=O)[O-])c4)c(Oc4cnc5[nH]ccc5c4)c3)CC2)=C(c2ccc(Cl)cc2)C1 [Venetoclax] + CN(C)CCCOc1ccc(-c2ccc3ncc4c(c3c2)n(C2CCOCC2)c(=O)n4C)cn1 [AZD0156] (first compound max 1 µM, 7x7, partner max 1 µM) | -0.0304 | -0.0237 | -0.008 | -0.0378 | -0.0434 | -0.0207 | -0.0404 | 0.0233 | 0.0387 | -0.0278 | -0.0536 | -0.0564 | -0.0377 | -0.0083 | -0.0397 | -0.024 | -0.0437 | -0.0366 | -0.0197 | -0.0422 |

Reference: the supplement of paper PMC11061612
